Results: ChEMBL document CHEMBL1287767, “Experimental solubility profiling of marketed CNS drugs, exploring solubility limit of CNS discovery candidate” (Bioorg Med Chem Lett, 2010)
In brackets after ≈: the same amount, converted by molar mass.

Legend:
[1] = Solubility of the compound in 0.1 M phosphate buffer at 600 uM at pH 7.4 after 24 hrs by LC/MS/MS analysis; details: for solubility at 24 h, 600 µM: pH 7.4
[2] = Solubility of the compound at pH 7.95; format: physicochemical; details: buffer
[3] = Solubility of the compound in water; format: physicochemical
[4] = Solubility of the compound; format: physicochemical
[5] = Solubility of the compound at pH 7.4; format: physicochemical; details: buffer

Structure (SMILES) | solubility at 24 h, 600 µM ([1]; 0.1 M phosphate buffer) [µM] | other results
CCC1(c2cccc(O)c2)CCCCN(C)C1 (stereo unspecified) [MEPTAZINOL] | > 500 | 
COCC1CN=C(c2ccccc2Cl)c2cc(Br)ccc2N1C (stereo unspecified) [METACLAZEPAM] | 3.52 (≈ 1.39 µg/mL) | 
COC(=O)C(c1ccccc1)C1CCCCN1 (stereo unspecified) [METHYLPHENIDATE] | 411 (≈ 95.9 µg/mL) | 
Cc1ncc2n1-c1ccc(Cl)cc1C(c1ccccc1F)=NC2 [MIDAZOLAM] | 392 (≈ 128 µg/mL) | solubility [2]: 55 µg/mL (≈ 169 µM)
CN1CCN2c3ncccc3Cc3ccccc3C2C1 (stereo unspecified) [MIRTAZAPINE] | > 500 | 
O=C(NCCN1CCOCC1)c1ccc(Cl)cc1 [MOCLOBEMIDE] | > 500 | 
NC(=O)C[S+]([O-])C(c1ccccc1)c1ccccc1 (stereo unspecified) [MODAFINIL] | > 500 | 
O=C1CC[C@@]2(O)[C@H]3Cc4ccc(O)c5c4[C@@]2(CCN3CC2CC2)[C@H]1O5 [NALTREXONE] | > 500 | 
CCc1nn(CCCN2CCN(c3cccc(Cl)c3)CC2)c(=O)n1CCOc1ccccc1 [NEFAZODONE] | 9.9 (≈ 4.65 µg/mL) | 
Cc1cc2c(s1)Nc1ccccc1N=C2N1CCN(C)CC1 [OLANZAPINE] | > 500 | 
NC(=O)N1c2ccccc2CC(=O)c2ccccc21 [OXCARBAZEPINE] | 245 (≈ 61.8 µg/mL) | solubility [3]: 308 µg/mL (≈ 1220 µM)
Fc1ccc([C@@H]2CCNC[C@H]2COc2ccc3c(c2)OCO3)cc1 [PAROXETINE] | > 500 | 
CCCN1C[C@H](CSC)C[C@@H]2c3cccc4[nH]cc(c34)C[C@H]21 [PERGOLIDE] | 2.1 (≈ 0.66 µg/mL) | 
O=C1NC(=O)C(c2ccccc2)(c2ccccc2)N1 [PHENYTOIN] | 80 (≈ 20.2 µg/mL) | solubility [3]: 32 µg/mL (≈ 127 µM)
CCCN[C@H]1CCc2nc(N)sc2C1 [PRAMIPEXOLE] |  | solubility [4]: > 10000 µg/mL; solubility at 24 h, 600 µM ([1]; buffer): > 500 µM
NC(=O)CCC/N=C(\c1ccc(Cl)cc1)c1cc(F)ccc1O [PROGABIDE] | 55.2 (≈ 18.5 µg/mL) | 
CCC(=O)O[C@](Cc1ccccc1)(c1ccccc1)[C@H](C)CN(C)C [PROPOXYPHENE] | 250 (≈ 84.9 µg/mL) | 
Fc1ccccc1C1=NCC(=S)N(CC(F)(F)F)c2ccc(Cl)cc21 [QUAZEPAM] | 0.3 (≈ 0.116 µg/mL) | 
OCCOCCN1CCN(C2=Nc3ccccc3Sc3ccccc32)CC1 [QUETIAPINE] |  | solubility at 24 h, 600 µM ([1]; buffer): 310 µM (≈ 119 µg/mL)
CCOc1ccccc1OC(c1ccccc1)C1CNCCO1 (stereo unspecified) [REBOXETINE] | > 500 | 
CCN1CCC[C@H]1CNC(=O)c1c(OC)ccc(Br)c1OC [REMOXIPRIDE] | > 500 | 

Structure (SMILES) | solubility at 24 h, 600 µM ([1]; 0.1 M phosphate buffer) [µM] | other results
Cc1nc2n(c(=O)c1CCN1CCC(c3noc4cc(F)ccc34)CC1)CCCC2 [RISPERIDONE] | > 444 | 
CN(C)CCc1c[nH]c2ccc(Cn3cncn3)cc12 [RIZATRIPTAN] | > 500 | 
CCCN(CCC)CCc1cccc2c1CC(=O)N2 [ROPINIROLE] | > 500 | 
O=C1NCCN1CCN1CCC(c2cn(-c3ccc(F)cc3)c3ccc(Cl)cc23)CC1 [SERTINDOLE] | 18.1 (≈ 7.98 µg/mL) | 
CN[C@H]1CC[C@@H](c2ccc(Cl)c(Cl)c2)c2ccccc21 [SERTRALINE] |  | solubility ([1]; buffer, pH 7.4, 24 h, 600 µM): 350 µM (≈ 107 µg/mL)
CC(C)CC(N(C)C)C1(c2ccc(Cl)cc2)CCC1 (stereo unspecified) [SIBUTRAMINE] | 143 (≈ 40 µg/mL) | 
Nc1c2c(nc3ccccc13)CCCC2 [TACRINE] |  | solubility [3]: 217 µg/mL (≈ 1090 µM); solubility at 24 h, 600 µM ([1]; buffer): > 500 µM
C=CCN1CCc2nc(N)sc2CC1 [TALIPEXOLE] | 133 (≈ 27.8 µg/mL) | 
Cc1ccsc1C(=CCCN1CCC[C@@H](C(=O)O)C1)c1sccc1C [TIAGABINE] | > 500 | 
Cc1ccc(C(=O)c2cc(O)c(O)c([N+](=O)[O-])c2)cc1 [TOLCAPONE] | > 500 | solubility [5]: 115 µg/mL
CC1(C)O[C@@H]2[C@@H](CO[C@@]3(COS(N)(=O)=O)OC(C)(C)O[C@@H]23)O1 [TOPIRAMATE] | > 500 | solubility [3]: 9800 µg/mL (≈ 28900 µM)
COc1cccc(C2(O)CCCCC2CN(C)C)c1 (stereo unspecified) [TRAMADOL] | > 500 | 
Cc1nnc2n1-c1ccc(Cl)cc1C(c1ccccc1Cl)=NC2 [TRIAZOLAM] | 35.9 (≈ 12.3 µg/mL) | 
CN1[C@@H]2CC[C@H]1C[C@@H](OC(=O)c1c[nH]c3ccccc13)C2 [TROPISETRON] | > 500 | 
CCCC(CCC)C(=O)O [VALPROIC ACID] | > 500 | 
C=CC(N)CCC(=O)O (stereo unspecified) [VIGABATRIN] | > 500 | 
O=C1Cc2cc(CCN3CCN(c4nsc5ccccc45)CC3)c(Cl)cc2N1 [ZIPRASIDONE] | 1.05 (≈ 0.434 µg/mL) | solubility [4]: 0.08 µg/mL (≈ 0.194 µM)
CN(C)CCc1c[nH]c2ccc(C[C@H]3COC(=O)N3)cc12 [ZOLMITRIPTAN] | > 500 | 
Cc1ccc(-c2nc3ccc(C)cn3c2CC(=O)N(C)C)cc1 [ZOLPIDEM] | 260 (≈ 79.9 µg/mL) | solubility [5]: > 250 µM
NS(=O)(=O)Cc1noc2ccccc12 [ZONISAMIDE] | > 500 | 
CN1CCN(C(=O)OC2c3nccnc3C(=O)N2c2ccc(Cl)cn2)CC1 (stereo unspecified) [ZOPICLONE] | 219 (≈ 85.2 µg/mL) | 
